Measurements published in a compilation of properties of binary mixtures (doi:10.1016/j.jct.2017.05.012).

Assay: xn = mol fraction of the nth substance listed
Details: 101 kPa

CCCCCCCCOS(=O)(=O)[O-].CC[n+]1ccn(C)c1 + O
Details | electrical conductivity [S/m] | viscosity [mPa·s]
268.15 K, x2 = 0.7822 | 0.277 | –
268.15 K, x2 = 0.8104 | 0.331 | –
268.15 K, x2 = 0.8384 | 0.406 | –
273.15 K, x2 = 0.7822 | 0.355 | –
273.15 K, x2 = 0.8104 | 0.417 | –
273.15 K, x2 = 0.8384 | 0.529 | –
278.15 K, x2 = 0.7822 | 0.447 | –
278.15 K, x2 = 0.8104 | 0.522 | –
278.15 K, x2 = 0.8384 | 0.653 | –
283.15 K, x2 = 0.7822 | 0.552 | –
283.15 K, x2 = 0.8104 | 0.642 | –
283.15 K, x2 = 0.8237 | 0.677 | –
283.15 K, x2 = 0.8384 | 0.799 | –
288.15 K, x2 = 0.8104 | 0.772 | –
288.15 K, x2 = 0.8237 | 0.819 | –
288.15 K, x2 = 0.8384 | 0.956 | –
290.15 K, x2 = 0.8384 | 1.02 | –
291.15 K, x2 = 0.8237 | 0.91 | –
291.15 K, x2 = 0.8384 | 1.05 | –
292.15 K, x2 = 0.8104 | 0.89 | –
293.15 K, x2 = 0.7822 | 0.801 | –
293.15 K, x2 = 0.8104 | 0.921 | –
293.15 K, x2 = 0.8237 | 0.971 | –
293.15 K, x2 = 0.8384 | 1.13 | –
294.15 K, x2 = 0.8104 | 0.951 | –
296.15 K, x2 = 0.8237 | – | 73.9
297.15 K, x2 = 0.7822 | – | 76.7
297.15 K, x2 = 0.8384 | – | 62.9
298.15 K, x2 = 0.7822 | 0.949 | 72.6
298.15 K, x2 = 0.8104 | 1.07 | 67.2
298.15 K, x2 = 0.8384 | 1.31 | 59.6
299.15 K, x2 = 0.8237 | – | 60.2
300.15 K, x2 = 0.8237 | – | 57.1
303.15 K, x2 = 0.7822 | 1.11 | 55.9
303.15 K, x2 = 0.8104 | 1.25 | 51.7
308.15 K, x2 = 0.7822 | – | 43.7
308.15 K, x2 = 0.8104 | – | 40.4
308.15 K, x2 = 0.8237 | – | 38.33
308.15 K, x2 = 0.8384 | – | 36.02
313.15 K, x2 = 0.7822 | 1.47 | 34.66
313.15 K, x2 = 0.8237 | 1.73 | –
313.15 K, x2 = 0.8384 | 1.98 | 28.64
318.15 K, x2 = 0.8237 | – | 24.55
323.15 K, x2 = 0.7822 | 1.89 | 22.8
323.15 K, x2 = 0.8104 | 2.09 | 21.03
323.15 K, x2 = 0.8384 | 2.55 | 18.8
328.15 K, x2 = 0.8237 | – | 16.51
333.15 K, x2 = 0.8104 | 2.66 | 14.42
333.15 K, x2 = 0.8384 | 3.13 | 12.91
338.15 K, x2 = 0.8237 | – | 11.57
343.15 K, x2 = 0.8104 | 3.17 | 10.28
343.15 K, x2 = 0.8237 | 3.28 | –
343.15 K, x2 = 0.8384 | 3.76 | 9.26
353.15 K, x2 = 0.8237 | 3.77 | –
358.15 K, x2 = 0.8237 | 3.99 | –
363.15 K, x2 = 0.8237 | 4.35 | –
